Measurements published in patent publication US9465288B2, “Sulfonium salt compound, method for producing the same, and photoacid generator” (DSP GOKYO FOOD & CHEMICAL CO., LTD., priority 2012, dated 2016).

Assays:
[1] = Ultraviolet-visible absorption spectrum, molecular extinction coefficient at 365 nm; assay type: physicochemical; details: 1×10^−4 mol/L acetonitrile solution; reference range 50 to 2000
Method: A 1×10^−4 mol/L acetonitrile solution of each test compound was prepared, and the molecular extinction coefficient at 365 nm in the ultraviolet-visible absorption spectrum was measured using an ultraviolet-visible spectrophotometer (UV-2400PC, manufactured by SHIMADZU CORPORATION). […] Considering that light would be transmitted to a deep portion of a thick film, the reference range of the molecular extinction coefficient at 365 nm (i-line) was set to 50 to 2000. The sulfonium compounds falling within this range were evaluated as having desirable properties.

[2] = Solubility: amount of PGMEA necessary for dissolving 100 mg of test compound; assay type: physicochemical; details: for PGMEA (amount necessary for dissolving the test compound): 100 mg test compound, 20±5° C., 30 minutes with 30-second strong shaking every 5 minutes, 300 μL or less desirable
Method: The thus obtained sulfonium salt compounds were used as test compounds. PGMEA was added to 100 mg of each test compound, and the amount of PGMEA necessary for dissolving the test compound therein after the elapse of 30 minutes by repeating 30-second strong shaking at 20±5° C. every 5 minutes was measured. Here, “dissolving” means to reach the state where no insoluble matter can be observed by visual inspection, specifically, means that the resultant solution is clear, or a mixture in an arbitrary ratio becomes transparent. […] In Table 1 below, sulfonium salt compounds with an amount of PGMEA of 300 μL or less were evaluated as having desirable properties.

Structure (SMILES) | Molecular extinction coefficient (365 nm) [1] | PGMEA (amount necessary for dissolving the test compound) [2] | Solubility in PGMEA (in words) ([2]; PGMEA)
COc1ccc2ccc(OC)c([S+](c3ccccc3)c3ccccc3)c2c1.O=S1(=O)[N-]S(=O)(=O)C(F)(F)C(F)(F)C1(F)F [C. Ex. 2, 1-(2,7-dimethoxynaphthyl)diphenylsulfonium 1,1,2,2,3,3-hexafluorotrimethylene sulfone imide, reference compound] | 2010 | 1400 µL | –
O=S1(=O)[N-]S(=O)(=O)C(F)(F)C(F)(F)C1(F)F.c1ccc([S+](c2ccccc2)c2ccccc2)cc1 [C. Ex. 1, triphenylsulfonium 1,1,2,2,3,3-hexafluorotrimethylene imide, reference compound] | 0 | 300 µL | –
CCCCOc1ccc2c(OCCCC)ccc([S+](CCCC)CCCC)c2c1.O=S(=O)([N-]S(=O)(=O)C(F)(F)F)C(F)(F)F [Ex. 10, 1-(4,7-di-n-butoxynaphthyl)di-n-butylsulfonium di(1,1,1-trifluoromethanesulfone)imide] | 940 | 100 µL | –
CCCCOc1ccc2ccc(OCCCC)c([S+](C(C)C)C(C)C)c2c1.O=S(=O)([N-]S(=O)(=O)C(F)(F)F)C(F)(F)F [Ex. 12, 1-(2,7-di-n-butoxynaphthyl)diisopropyl sulfonium di(1,1,1-trifluoromethanesulfone)imide] | 880 | 100 µL | –
CCCCOc1ccc2ccc(OCCCC)c([S+](CCCC)CCCC)c2c1.O=S(=O)([N-]S(=O)(=O)C(F)(F)F)C(F)(F)F [Ex. 9, 1-(2,7-di-n-butoxynaphthyl)di-n-butylsulfonium di(1,1,1-trifluoromethanesulfone)imide] | 560 | 200 µL | –
CCCCOc1ccc2ccc(OCCCC)c([S+](CCCC)CCCC)c2c1.O=S(=O)([N-]S(=O)(=O)C(F)(F)C(F)(F)C(F)(F)C(F)(F)F)C(F)(F)C(F)(F)C(F)(F)C(F)(F)F [Ex. 1, 1-(2,7-di-n-butoxynaphthyl)di-n-butylsulfonium di(1,1,2,2,3,3,4,4,4-nonafluorobutanesulfone)imide] | 580 | 100 µL | –
CCCCOc1ccc2ccc(OCCCC)c([S+](C(C)C)C(C)C)c2c1.O=S(=O)([N-]S(=O)(=O)C(F)(F)C(F)(F)C(F)(F)C(F)(F)F)C(F)(F)C(F)(F)C(F)(F)C(F)(F)F [Ex. 13, 1-(2,7-di-n-butoxynaphthyl)diisopropyl sulfonium di(1,1,2,2,3,3,4,4,4-nonafluorobutanesulfone)imide] | 1030 | 100 µL | –
CCCCOc1ccc([S+](CCCC)CCCC)c2c(OCCCC)cccc12.O=S(=O)([N-]S(=O)(=O)C(F)(F)C(F)(F)C(F)(F)C(F)(F)F)C(F)(F)C(F)(F)C(F)(F)C(F)(F)F [Ex. 8, 1-(4,8-di-n-butoxynaphthyl)di-n-butylsulfonium di(1,1,2,2,3,3,4,4,4-nonafluorobutanesulfone)imide] | 620 | 100 µL | –
CCCCOc1ccc2ccc(OCCCC)c([S+](CCCC)CCCC)c2c1.O=S(=O)([O-])C(F)(F)C(F)(F)C(F)(F)C(F)(F)F [Ex. 6, 1-(2,7-di-n-butoxynaphthyl)di-n-butylsulfonium 1,1,2,2,3,3,4,4,4-nonafluorobutanesulfonate] | 690 | 100 µL | –
CCCCOc1ccc2ccc(OCCCC)c([S+](C)C)c2c1.O=S(=O)([N-]S(=O)(=O)C(F)(F)C(F)(F)C(F)(F)C(F)(F)F)C(F)(F)C(F)(F)C(F)(F)C(F)(F)F [Ex. 2, 1-(2,7-di-n-butoxynaphthyl)dimethylsulfonium di(1,1,2,2,3,3,4,4,4-nonafluorobutanesulfone)imide] | 480 | 100 µL | –
O=S(=O)([N-]S(=O)(=O)C(F)(F)C(F)(F)C(F)(F)C(F)(F)F)C(F)(F)C(F)(F)C(F)(F)C(F)(F)F.c1ccc([S+](c2ccccc2)c2ccccc2)cc1 [C. Ex. 4, triphenylsulfonium di(1,1,2,2,3,3,4,4,4-nonafluorobutanesulfone)imide, reference compound] | 0 | 100 µL | –
CCCCOc1ccc2ccc(OCCCC)c([S+](c3ccccc3)c3ccccc3)c2c1.O=S(=O)([N-]S(=O)(=O)C(F)(F)C(F)(F)C(F)(F)C(F)(F)F)C(F)(F)C(F)(F)C(F)(F)C(F)(F)F [C. Ex. 5, 1-(2,7-di-n-butoxynaphthyl)diphenylsulfonium di(1,1,2,2,3,3,4,4,4-nonafluorobutanesulfone)imide, reference compound] | 2930 | 100 µL | –
CCCCOc1ccc2ccc(OCCCC)c([S+](CCCC)CCCC)c2c1.F[P-](F)(F)(F)(F)F [C. Ex. 3, 1-(2,7-di-n-butoxynaphthyl)di-n-butylsulfonium hexafluorophosphate, reference compound] | 490 | 1900 µL | exceptionally low solubility in PGMEA
CCCCCCCCOc1ccc2ccc(OCCCCCCCC)c([S+](C)C)c2c1.O=S(=O)([N-]S(=O)(=O)C(F)(F)F)C(F)(F)F [Ex. 11, 1-(2,7-di-n-octoxynaphthyl)dimethylsulfonium di(1,1,1-trifluoromethanesulfone)imide] | 440 | 100 µL | –
CCCCOc1ccc2c(OCCCC)ccc([S+](CCCC)CCCC)c2c1.O=S(=O)([N-]S(=O)(=O)C(F)(F)C(F)(F)C(F)(F)C(F)(F)F)C(F)(F)C(F)(F)C(F)(F)C(F)(F)F [Ex. 3, 1-(4,7-di-n-butoxynaphthyl)di-n-butylsulfonium di(1,1,2,2,3,3,4,4,4-nonafluorobutanesulfone)imide] | 810 | 100 µL | –
CCCCOc1cc(OCCCC)c2ccccc2c1[S+](CCCC)CCCC.O=S(=O)([N-]S(=O)(=O)C(F)(F)C(F)(F)C(F)(F)C(F)(F)F)C(F)(F)C(F)(F)C(F)(F)C(F)(F)F [Ex. 5, 1-(2,4-di-n-butoxynaphthyl)di-n-butylsulfonium di(1,1,2,2,3,3,4,4,4-nonafluorobutanesulfone)imide] | 100 | 100 µL | –
CCCCOc1ccc([S+](CCCC)CCCC)c2c(OCCCC)cccc12.O=S(=O)([N-]S(=O)(=O)C(F)(F)F)C(F)(F)F [Ex. 7, 1-(4,8-di-n-butoxynaphthyl)di-n-butylsulfonium di(1,1,1-trifluoromethanesulfone)imide] | 570 | 100 µL | –
CCCCOc1ccc2ccc(OCCCC)c([S+](CCCC)CCCC)c2c1.O=S1(=O)[N-]S(=O)(=O)C(F)(F)C(F)(F)C1(F)F [Ex. 4, 1-(2,7-di-n-butoxynaphthyl)di-n-butylsulfonium 1,1,2,2,3,3-hexafluorotrimethylene sulfone imide] | 700 | 200 µL | –
